Source: US8283009B2, “Use of a material based on a thermoplastic polymer having a high content of antioxidants for packaging dianhydrohexitols” (Roquette Freres, priority 2007, dated 2012)

Assays:
[1] = Analysis for peroxides on the packaged product after storage; format: physicochemical; conditions: packaged in accordance with the invention (PE + carbon black); 50° C.; after 4 months of storage
[2] = Storage stability of isosorbide in sealed packaging sachets at 50° C., pH-metry; format: physicochemical
Source text: 50 g of isosorbide in solid form (flakes) are introduced into a sachet (25 cm×25 cm) constituted of the packaging material to be tested. The sachet is immediately sealed by welding using an impulse heat sealer (model SZ 380 sold by Joisten & Kettenbaum GmbH & Co, Bergisch Gladbach, Germany). The thus sealed sachet is in turn introduced into a second sachet made of aluminum comprising a polyethylene coating, sealed by welding using the same heat sealer in order to ensure leaktightness with respect to the external atmosphere. The samples thus packaged are placed in a ventilated oven, thermostatted at a temperature of 50° C. A control sample is enclosed in a glass flask and stored under the same conditions.
After a given period, the whole of the sample of isosorbide is extracted from the packagings and dissolved to 40% by weight of solids in osmosed water. […]

presence of peroxides (markers of oxidation phenomena, instability) [1]: did not show any presence of peroxides
drop in pH after storage ([2]; packaged in accordance with the invention (PE + carbon black), after 4 months of storage): no drop in pH
pH of the solution ([2]; packaging PE + carbon black (according to the invention), storage 0 day, 40% by weight of solids in osmosed water): pH 7.6
pH of the solution ([2]; packaging PE + carbon black (according to the invention), storage 1 month, 40% by weight in osmosed water): pH 7.3
pH of the solution ([2]; packaging PE + carbon black (according to the invention), storage 1.5 month, 40% by weight in osmosed water): pH 7.4
pH of the solution ([2]; packaging PE + carbon black (according to the invention), storage 2 months, 40% by weight in osmosed water): pH 7.5
pH of the solution ([2]; packaging PE + carbon black (according to the invention), storage 2 weeks, 40% by weight in osmosed water): pH 7.2
pH of the solution ([2]; packaging PE + carbon black (according to the invention), storage 2.5 months, 40% by weight in osmosed water): pH 7.5
pH of the solution ([2]; packaging PE + carbon black (according to the invention), storage 3 months, 40% by weight in osmosed water): pH 7.6
pH of the solution ([2]; packaging PE + carbon black (according to the invention), storage 4 months, 40% by weight in osmosed water): pH 7.7
pH of the solution ([2]; packaging Sachet 1 (comp.) branched/linear polyethylene 50%/50%, storage 0 day, 40% by weight in osmosed water): pH 7.6
pH of the solution ([2]; packaging Sachet 1 (comp.) branched/linear polyethylene 50%/50%, storage 1 month, 40% by weight in osmosed water): pH 7.4
pH of the solution ([2]; packaging Sachet 1 (comp.) branched/linear polyethylene 50%/50%, storage 1.5 month, 40% by weight in osmosed water): pH 7.4
pH of the solution ([2]; packaging Sachet 1 (comp.) branched/linear polyethylene 50%/50%, storage 2 weeks, 40% by weight in osmosed water): pH 7.5
pH of the solution ([2]; packaging Sachet 2 (comp.) branched/linear polyethylene 70%/30%, storage 0 day, 40% by weight in osmosed water): pH 7.6
pH of the solution ([2]; packaging Sachet 2 (comp.) branched/linear polyethylene 70%/30%, storage 2 weeks, 40% by weight in osmosed water): pH 7.5
pH of the solution ([2]; packaging Sachet 3 (comp.) 100% of branched polyethylene, storage 0 day, 40% by weight in osmosed water): pH 7.6
pH of the solution ([2]; packaging Sachet 4 (comp.) 100% of linear polyethylene, storage 0 day, 40% by weight in osmosed water): pH 7.6
pH of the solution ([2]; packaging Sachet 4 (comp.) 100% of linear polyethylene, storage 2 weeks, 40% by weight in osmosed water): pH 7.2
odor after storage ([2]; samples not packaged in accordance with the invention, glass 4 months, sachet 1 2 months, sachets 2 and 4 1 month, sachet 3 2 weeks): characteristic odor of formic acid
SMILES: O[C@@H]1CO[C@H]2[C@@H]1OC[C@@H]2O [isosorbide, 1,4:3,6-dianhydrosorbitol]
